Laboratory results published in patent US20160377635A1, “Measurement of Oxytocin and Vasopressin” (Martin-Protean LLC, priority 2013, published 2016).

Assays:
[1] = disulfide exchange with plasma thiols in the presence of air; assay type: physicochemical
Protocol: (§1) Oxytocin and vasopressin undergo disulfide exchange with abundant thiol containing compounds under aerobic conditions like those found in blood plasma. […] If albumin (1 mM) is added to that mixture all detectable oxytocin and vasopressin sequester with albumin upon acetone precipitation. Oxytocin immunoreactivity in plasma is associated with high molecular weight species (Szeto et al). When beta-mercaptoethanol (1 M) and histamine (30 mM) are added to plasma, oxytocin and vasopressin in the 1-100 nM range were recovered rather than the 1-100 pM range recovered without thiols or reported routinely with existing commercially available immunoreactivity tests. The mid nanomolar range is much more consistent with the concentrations required in biological assays for these compounds, such as inducing the lactation reflect with rabbit mammary tissue. Nanomolar concentrations for oxytocin and vasopressin are also far more consistent with the doses required for either peptide in intervention regimes.
Incubating oxytocin and vasopressin them with glutathione at its plasma concentration in the presence of air (as in blood) induces oxytocin and vasopressin to disulfide exchange with glutathione and undergo additional oxidation resulting in the accumulation of diglutathione adducts (FIGS. 4A-C). This additional oxidation-containing product accumulates even in the presence of a vast excess of reducing equivalents in the form of remaining excess reduced glutathione. The introduction of air lead to a disulfide exchange result distinct from that observed in the published literature. The disulfide exchange is inhibited by EDTA which is added to most blood as a preservative. In the body the hormones undergo exchange, but in collected blood the EDTA will inhibit diglutathione formation unless the redox state of the collected blood is perturbed, as FIG. 5.

[2] = tested on: excised and bathed section of mammary gland tissue; settings: cited from earlier work
[3] = molecular target: albumin (Homo sapiens, UniProt P02768); assay: incubation with free thiol containing albumin, acetone precipitation; assay type: in vitro ADME
Protocol: as §1
Acetone extraction of the incubation clears oxytocin and vasopressin from the solution into the pellet with the albumin. In one embodiment, exceptionally short half-life of oxytocin is measured with immunoreactivity on acetone extracted fractions. Observation of disulfide exchange mediated accumulation of oxytocin on high molecular weight proteins in the plasma.

[4] = reduced glutathione (1 mM) and oxygen, peptide ~10 nM
[5] = reduced glutathione, reduced cysteine (0.5 mM) and oxygen

Sequence of albumin (P02768 25-609, species assumed): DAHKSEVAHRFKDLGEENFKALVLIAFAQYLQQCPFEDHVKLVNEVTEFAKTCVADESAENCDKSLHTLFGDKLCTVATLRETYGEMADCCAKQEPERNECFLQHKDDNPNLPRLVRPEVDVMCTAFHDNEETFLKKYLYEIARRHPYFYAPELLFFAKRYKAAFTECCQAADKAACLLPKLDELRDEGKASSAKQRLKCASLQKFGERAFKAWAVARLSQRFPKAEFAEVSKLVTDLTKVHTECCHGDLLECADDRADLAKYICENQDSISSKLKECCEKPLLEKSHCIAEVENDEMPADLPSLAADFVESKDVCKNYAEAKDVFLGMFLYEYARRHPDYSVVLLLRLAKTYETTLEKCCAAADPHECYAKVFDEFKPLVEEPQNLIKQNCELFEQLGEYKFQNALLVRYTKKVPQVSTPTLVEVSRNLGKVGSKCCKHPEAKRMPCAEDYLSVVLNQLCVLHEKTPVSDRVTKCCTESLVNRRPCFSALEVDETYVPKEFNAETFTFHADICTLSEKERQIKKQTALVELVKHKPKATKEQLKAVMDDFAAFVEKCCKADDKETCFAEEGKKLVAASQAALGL

Row | SMILES | adduct formation by disulfide exchange [1, 4] | adduct formation by disulfide exchange [1, 5] | linear response range for contraction response [2] [ng/mL] | adsorption to albumin ([3]; pH 7.4) | adsorption to albumin ([3]; pH 7.4, room temperature (or 37° C.), with or without glutathione and cysteine)
1 | CC[C@H](C)[C@@H]1NC(=O)[C@H](Cc2ccc(O)cc2)NC(=O)[C@@H](N)CSSC[C@@H](C(=O)N2CCC[C@H]2C(=O)N[C@@H](CC(C)C)C(=O)NCC(N)=O)NC(=O)[C@H](CC(N)=O)NC(=O)[C@H](CCC(N)=O)NC1=O [oxytocin] | form diglutathione adducts | form dicysteine adducts | 1 to 20 | quantitative adsorption to albumin | –
2 | NC(=O)CC[C@@H]1NC(=O)[C@H](Cc2ccccc2)NC(=O)[C@H](Cc2ccc(O)cc2)NC(=O)[C@@H](N)CSSC[C@@H](C(=O)N2CCC[C@H]2C(=O)N[C@@H](CCCN=C(N)N)C(=O)NCC(N)=O)NC(=O)[C@H](CC(N)=O)NC1=O [vasopressin] | form diglutathione adducts | form dicysteine adducts | – | – | quantitative adsorption to albumin
